Data reported in publication PMC10914731, “Homo-BacPROTAC-induced degradation of ClpC1 as a strategy against drug-resistant mycobacteria” (Nature Communications, 2024).
≈ marks a conversion by molar mass, not a printed value. Where “and” joins values, the source holds several entries; their conditions need not be identical. Equal entries are not always repeated. Where two headings read alike, the source gives them in different places. *1 amine or outer side, *2 acyl side, *3 side chain or, on linkers, in order; H or OH if unused. Where a SMILES comes first, the peptide text is derived from it. [ ]: non-standard residue; d: D form. X1 = C#CCn1cc(C[C@H](N[*:1])C(=O)[*:2])c2ccccc21; NMeLeu(5-OH,4R) = CN[C@@H](C[C@@H](C)CO)C(=O)O; Phe(βR-OMe) = CO[C@H](c1ccccc1)[C@H](N)C(=O)O; NMeL = CN[C@@H](CC(C)C)C(=O)O

Tests used:
[1] = tested on: Mtb ATCC 35825; experiment: microbe, parasite or virus in culture; assay type: cell-based
[2] = tested on: Mycobacterium avium; experiment: microbe, parasite or virus in culture; assay type: cell-based
[3] = tested on: Mtb H37Rv; experiment: Minimum bactericidal concentration (MBC), Mtb H37Rv; assay type: cell-based, Mycobacterium tuberculosis; conditions: Mycobacterium tuberculosis, H37RV
[4] = biological target: ClpC1-NTD substrate, M. tuberculosis ClpC1P1P2 (Mycobacterium tuberculosis, UniProt P9WPC9); experiment: biochemical; assay type: biochemical; conditions: Mtb
Sequence of ClpC1-NTD substrate, M. tuberculosis ClpC1P1P2 (P9WPC5 whole entry): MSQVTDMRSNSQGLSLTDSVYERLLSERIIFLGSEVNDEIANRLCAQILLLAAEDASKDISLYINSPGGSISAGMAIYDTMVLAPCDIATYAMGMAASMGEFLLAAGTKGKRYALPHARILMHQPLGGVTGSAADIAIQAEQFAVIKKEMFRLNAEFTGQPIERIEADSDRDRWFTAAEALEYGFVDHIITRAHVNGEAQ
Sequence of ClpC1-NTD substrate, M. tuberculosis ClpC1P1P2 (P9WPC9 whole entry): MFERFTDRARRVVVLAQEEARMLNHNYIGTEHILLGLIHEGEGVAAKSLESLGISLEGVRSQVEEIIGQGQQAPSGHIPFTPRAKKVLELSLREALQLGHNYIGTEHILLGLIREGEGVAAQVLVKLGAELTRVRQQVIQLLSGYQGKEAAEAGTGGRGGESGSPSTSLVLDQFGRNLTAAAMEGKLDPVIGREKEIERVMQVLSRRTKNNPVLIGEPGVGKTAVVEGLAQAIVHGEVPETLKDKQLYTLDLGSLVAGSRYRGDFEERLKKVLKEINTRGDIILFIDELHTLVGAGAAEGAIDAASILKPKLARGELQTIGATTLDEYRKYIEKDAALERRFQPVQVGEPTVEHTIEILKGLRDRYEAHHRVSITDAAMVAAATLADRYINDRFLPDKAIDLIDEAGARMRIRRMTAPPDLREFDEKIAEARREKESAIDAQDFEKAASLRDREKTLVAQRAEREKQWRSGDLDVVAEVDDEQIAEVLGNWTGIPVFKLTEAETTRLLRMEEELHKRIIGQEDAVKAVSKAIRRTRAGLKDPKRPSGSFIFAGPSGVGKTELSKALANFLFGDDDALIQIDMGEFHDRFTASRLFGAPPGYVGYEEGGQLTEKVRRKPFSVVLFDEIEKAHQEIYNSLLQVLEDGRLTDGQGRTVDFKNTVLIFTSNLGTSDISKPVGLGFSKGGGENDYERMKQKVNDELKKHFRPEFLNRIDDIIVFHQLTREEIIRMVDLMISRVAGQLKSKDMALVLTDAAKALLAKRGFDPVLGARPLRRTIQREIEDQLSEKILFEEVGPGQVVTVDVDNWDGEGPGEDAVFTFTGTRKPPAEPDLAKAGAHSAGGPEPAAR
Sequence of ClpC1-NTD substrate, M. tuberculosis ClpC1P1P2 (P9WPC3 whole entry, further chain): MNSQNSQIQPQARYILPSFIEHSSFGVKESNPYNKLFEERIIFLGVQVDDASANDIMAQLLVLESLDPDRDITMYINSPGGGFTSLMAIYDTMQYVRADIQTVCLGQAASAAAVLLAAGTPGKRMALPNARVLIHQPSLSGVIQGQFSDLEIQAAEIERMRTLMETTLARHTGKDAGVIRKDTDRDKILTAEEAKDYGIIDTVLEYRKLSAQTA

[5] = biological target: His6-tagged ClpC1-NTD substrate, M. smegmatis ClpC1P1P2 (UniProt A0R574+P9WPC9); experiment: biochemical; assay type: biochemical; conditions: for DC50: Msm; for % Response / ClpC1-NTD peak area: Figure 4a source data, well replicates
Sequence of His6-tagged ClpC1-NTD substrate, M. smegmatis ClpC1P1P2 (P9WPC9 1-156, looked up, natural form): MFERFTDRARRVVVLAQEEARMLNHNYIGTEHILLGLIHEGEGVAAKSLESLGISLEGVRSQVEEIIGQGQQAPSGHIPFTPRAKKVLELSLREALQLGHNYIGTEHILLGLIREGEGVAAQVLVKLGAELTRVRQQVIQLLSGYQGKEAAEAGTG
Sequence of His6-tagged ClpC1-NTD substrate, M. smegmatis ClpC1P1P2 (A0R574 whole entry): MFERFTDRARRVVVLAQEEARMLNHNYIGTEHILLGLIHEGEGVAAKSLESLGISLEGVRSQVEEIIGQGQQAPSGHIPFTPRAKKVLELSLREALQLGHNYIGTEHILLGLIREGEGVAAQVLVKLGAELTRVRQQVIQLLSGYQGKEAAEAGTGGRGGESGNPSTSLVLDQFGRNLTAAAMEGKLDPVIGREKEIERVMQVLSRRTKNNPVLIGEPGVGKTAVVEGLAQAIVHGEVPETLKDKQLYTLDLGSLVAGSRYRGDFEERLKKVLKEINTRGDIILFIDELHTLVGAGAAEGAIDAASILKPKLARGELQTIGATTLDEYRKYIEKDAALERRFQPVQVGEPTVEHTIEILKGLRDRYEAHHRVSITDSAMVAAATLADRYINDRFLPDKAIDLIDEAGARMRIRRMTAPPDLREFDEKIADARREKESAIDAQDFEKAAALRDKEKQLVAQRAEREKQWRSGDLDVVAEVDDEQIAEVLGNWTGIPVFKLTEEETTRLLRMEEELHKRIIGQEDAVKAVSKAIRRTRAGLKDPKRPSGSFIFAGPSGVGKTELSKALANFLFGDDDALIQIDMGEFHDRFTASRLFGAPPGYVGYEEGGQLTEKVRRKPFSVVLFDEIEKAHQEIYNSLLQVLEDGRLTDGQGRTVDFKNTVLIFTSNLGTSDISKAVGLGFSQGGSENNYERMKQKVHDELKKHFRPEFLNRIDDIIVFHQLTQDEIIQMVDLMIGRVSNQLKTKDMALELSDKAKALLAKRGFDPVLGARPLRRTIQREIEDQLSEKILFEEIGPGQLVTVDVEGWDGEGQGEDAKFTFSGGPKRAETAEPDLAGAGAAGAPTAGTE

[6] = tested on: Mycobacterium intracellulare; experiment: microbe, parasite or virus in culture; assay type: cell-based
[7] = in vivo; assay type: in vivo, BALB/cAnNCrl mice
Experimental: The in-life experimental procedures were conducted in strict compliance with German and European animal welfare legislation in an AAALAC-accredited facility. Male BALB/cAnNCrl mice (Charles River Laboratories Research Models and Services, 97633 Sulzfeld, Germany) were used. Animals were 9 weeks old at dosing with a body weight of 21.6–24.3 g. Animals were delivered free of pathogens according to FELASA recommendations with a health certificate provided by the breeder. Upon receipt, the state of health and sex was checked. Animals acclimatized for at least 5 days before the commencement of the in-life phase. During acclimation, animals were group-housed in individually ventilated cages, on birch wood granulate bedding with species-specific enrichment (nesting material, mouse igloo, gnawing wood). During experimental conduct, animals were housed in conventional cages with elevated grid floors. Grid floor was used to avoid contamination with test item material excreted via urine and feces and subsequent reuptake during fur grooming. No bedding and enrichment were provided except a cage divider, which can be used as a shelter. Animals always had unlimited access to food and water and received a pelleted, total pathogen-free maintenance diet and tap drinking water, sterilized by filter.
On the day before dosing, test item(s) were suspended in kleptose (20% in WFI) under continuous stirring (3.0 mg/ml). Following 2 min vortexing and 1 h stirring, the formulation was sonicated at 60 °C for 30 min and stirred at ambient temperature overnight. Before dosing, the formulation was vortexed for 2 min followed by ultraturrax treatment for 2 min.
Male BALB/cAnNCrl mice (n = 3 per test item and administration route) received a bolus dose of the formulated test item(s) (1 mg/kg iv, 30 mg/kg po) at t = 0 h, and whole blood samples were collected subsequently (35 µl at 0.1 (iv) / 0.25 (po), 0.5, 1, 2, 4, 6 h; 600 µl at sacrifice after 24 h). Animals were euthanized by exsanguination in deep isoflurane anesthesia. Whole blood samples were immediately stored on ice at about 4 °C. Plasma was separated by centrifugation at approximately 10,000 × g for 5 m at +4 °C. Centrifugation of each blood sample was started within 10 m after collection. A single aliquot of at least 15 µL of plasma was prepared and immediately stored at −20 ± 5 °C.
Sample proteins were precipitated with ACN (1 + 12, v/v) containing internal standard, and supernatants analyzed by quantitative UPLC-MS/MS: Phenomenex Luna Omega C18, 2.1 × 50 mm, 1.6 µm, 40 °C, gradient between 10% - 90% ACN with 0.1% formic acid. LogD determination: Lipophilicity of the test items, expressed as chromLogD7.5, was assessed by measuring their chromatographic retention times on C18-material. The chromatographic retention versus logD7.5 values of a series of thirteen n-alkan-2-ones (2-butanone – 2-hexadecanone) served as lipophilicity calibration.

[8] = tested on: Mtb # 8673; experiment: microbe, parasite or virus in culture; assay type: cell-based
[9] = tested on: non-replicating cells of Mtb H37Rv; assay type: cell-based, Mycobacterium tuberculosis; conditions: three replicate columns
[10] = assay type: in vitro ADME, Rat
In short: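 Compound at 1 µmol/l incubated with 0.5 mg/ml liver microsomes in 100 mM Tris-HCl pH 7.5, 6.5 mM MgCl2, 1 mM NADPH, 37 °C; acetonitrile-quenched at multiple time points, measured by HPLC-MS/MS. First-order half-lives converted to clearance as %Qh via well-stirred liver model.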

[11] = Experiment 2, three replicate columns
[12] = mean of the measurements, read-out: DC50, Mean
[13] = oral gavage 30 mg/kg, mice, Mean, BLOQ <1.00 nmol/L
[14] = oral gavage, individual animals 1-3
[15] = oral gavage, individual animals 1-3, BLOQ <1.00 nmol/L

What does the source list for `C#CCn1cc(C[C@@H]2NC(=O)[C@H](C(C)C)NC(=O)[C@H](CC(C)C)N(C)C(=O)[C@H](C(C)C)NC(=O)[C@H]([C@H](OC)c3ccccc3)NC(=O)[C@H](C)NC(=O)[C@H](C[C@@H](C)CO)N(C)C2=O)c2ccccc21` [Compound 5] (cyclo(A[Phe(βR-OMe)]V[NMeL]V[X1][NMeLeu(5-OH,4R)]))?
MIC ([1]; Mycobacterium tuberculosis, ATCC35825, mean, n = 2 well replicates): 0.2 µM and 0.2 µg/mL; MIC ([1]; Mycobacterium tuberculosis, ATCC35825, single well replicates): 0.18 µg/mL and 0.19 µM; MIC ([1]; single well replicates): 0.19 µM (≈ 0.179 µg/mL); MIC Mtb ATCC 35825 ([1]; single well replicates): 0.18 µg/mL (≈ 0.191 µM); MIC ([2]; Experiment 1, read-out: MIC Mycobacterium avium): 6.3 µM; MIC (µg/ml) Mycobacterium avium [2, 11]: 5.88 µg/mL (≈ 6.25 µM); MIC ([2]; Experiment 2, three replicate columns, read-out: MIC (µM) Mycobacterium avium): 6.25 µM; MIC ([2]; Mycobacterium avium, Experiment 1, read-out: MIC Mycobacterium avium): 5.9 µg/mL; MIC ([2]; Mycobacterium avium, Experiment 2, three replicate columns, read-out: MIC (µM) Mycobacterium avium): 6.25 µM; MIC ([2]; Mycobacterium avium, Experiment 2, three replicate columns, read-out: MIC (µg/ml) Mycobacterium avium): 5.88 µg/mL; MIC ([2]; Mycobacterium avium, mean ± SD, read-out: MIC Mycobacterium avium): 6.3 µM; MBC ([3]; read-out: MBC (from Set 3) Mtb H37Rv): 6.25 µM and 5.88 µg/mL; MBC ([3]; individual example, read-out: MBC Mtb H37Rv): 6.3 µM and 5.9 µg/mL; DC50 ([4]; Measurement 1-4, read-out: DC50, single measurements): > 100 µM; DC50 [4, 12]: > 100 µM; DC50 ([5]; Measurement 1-6, read-out: DC50, single measurements): > 100 µM; DC50 [5, 12]: > 100 µM; degradation of the His6-tagged ClpC1-NTD substrate ([5]; cell-free, result in words): did not cause any degradation; % Response ([5]; conc. 0.4 µM): 116.842% and 113.028% and 105.03% and 119.052% and 111.716% and 114.137% and 123.793% and 118.108% and 117.25%; ClpC1-NTD peak area ([5]; conc. 0.4 µM): 640826 and 655003 and 1857813 and 1613203 and 1512289 and 674239 and 595770 and 768891 and 644662; % Response ([5]; conc. 33.3 µM): 90.9541% and 97.3128% and 94.2061% and 106.414% and 99.6024% and 104.896% and 117.254% and 102.794% and 105.872%; ClpC1-NTD peak area ([5]; conc. 33.3 µM): 584244 and 637952 and 1853168 and 1510772 and 1477984 and 564418 and 575020 and 543552 and 642219; % Response ([5]; conc. 100.0 µM): 105.654% and 87.8451% and 96.6012% and 102.875% and 103.779% and 107.689% and 115.982% and 114.344% and 115.781%; ClpC1-NTD peak area ([5]; conc. 100.0 µM): 756908 and 694227 and 2586172 and 1761383 and 2099655 and 509578 and 446745 and 481433 and 842128; MIC ([6]; Experiment 1, read-out: MIC Mycobacterium intracellulare): 6.3 µM; MIC (µg/ml) Mycobacterium intracellulare [6, 11]: 5.88 µg/mL (≈ 6.25 µM); MIC ([6]; Experiment 2, three replicate columns, read-out: MIC (µM) Mycobacterium intracellulare): 6.25 µM; MIC ([6]; Mycobacterium intracellulare, Experiment 1, read-out: MIC Mycobacterium intracellulare): 5.9 µg/mL; MIC ([6]; Mycobacterium intracellulare, Experiment 2, three replicate columns, read-out: MIC (µM) Mycobacterium intracellulare): 6.25 µM; MIC ([6]; Mycobacterium intracellulare, Experiment 2, three replicate columns, read-out: MIC (µg/ml) Mycobacterium intracellulare): 5.88 µg/mL; MIC ([6]; Mycobacterium intracellulare, mean ± SD, read-out: MIC Mycobacterium intracellulare): 6.3 µM; half-life ([7]; male, BALB/cAnNCrl, mouse, in vivo, po, […], oral gavage, individual animals 1-3): 36.5 min; tmax ([7]; male, BALB/cAnNCrl, mouse, in vivo, po, […], oral gavage, individual animals 1-3, read-out: tmax): 60 min; half-life ([7]; male, BALB/cAnNCrl, mouse, in vivo, po, […], oral gavage, mice, Mean): 34.7 min; tmax ([7]; male, BALB/cAnNCrl, mouse, in vivo, po, […], oral gavage, mice, Mean, read-out: tmax): 100 min; Plasma concentration 24 h ([7]; mouse, in vivo, po): BLOQ; Plasma concentration 0.5 h [7, 13]: 11.7 nM; Plasma concentration 1 h [7, 13]: 15.5 nM; Plasma concentration 2 h [7, 13]: 18.0 nM; Plasma concentration 4 h [7, 13]: 1.62 nM; Plasma concentration 6 h [7, 13]: 1.76 nM; Plasma concentration 24 h [7, 13]: 4.22 nM; Plasma concentration […] [7, 13]: 12.2 nM; AUC0-inf/Dose [7, 14]: 3.14 h*nM/nmol/kg and 1.57 h*nM/nmol/kg and 1.80 h*nM/nmol/kg; AUC0-t/Dose [7, 14]: 3.02 h*nM/nmol/kg and 1.53 h*nM/nmol/kg and 1.74 h*nM/nmol/kg; Cmax/Dose [7, 14]: 0.480 nM/nmol/kg and 0.558 nM/nmol/kg and 0.684 nM/nmol/kg; t1/2 [7, 14]: 34.6 min and 33.1 min; tmax [7, 14]: 120 min; Plasma concentration 0.5 h [7, 15]: 13.0 nM and 10.7 nM and 11.4 nM; Plasma concentration 1 h [7, 15]: 15.3 nM and 15.7 nM and 15.5 nM; Plasma concentration 2 h [7, 15]: 14.5 nM and 17.8 nM and 21.8 nM; Plasma concentration 4 h [7, 15]: 1.49 nM and 1.61 nM and 1.76 nM; Plasma concentration 6 h [7, 15]: 1.54 nM and 1.59 nM and 2.14 nM; Plasma concentration 24 h [7, 15]: 4.22 nM; Plasma concentration […] [7, 15]: 14.2 nM and 11.7 nM and 10.6 nM; BA ([7]; oral gavage, mice (compound 12: from Animal 2 only; compound 6: maximum potential value)): 1.2%; AUC0-inf/Dose ([7]; oral gavage, mice, Mean): 2.17 h*nM/nmol/kg; Cmax/Dose ([7]; oral gavage, mice, Mean): 0.574 nM/nmol/kg; AUC0-t/Dose ([7]; oral gavage, mice, Mean (compound 6: maximum potential value with 1 nM for each time point)): 2.10 h*nM/nmol/kg; MIC ([8]; Mycobacterium tuberculosis, mean, n = 2 well replicates): 0.2 µM and 0.2 µg/mL; MIC ([8]; Mycobacterium tuberculosis, single well replicates): 0.19 µM and 0.18 µg/mL; MIC ([8]; single well replicates): 0.19 µM (≈ 0.179 µg/mL); MIC Mtb # 8673 ([8]; single well replicates): 0.18 µg/mL (≈ 0.191 µM); Supplementary Figure 2 dose-response value, starvation-induced non-replicating H37Rv cells ([9]; Conc. 0.0488281 µM): 103.448 and 95.0508 and 97.0505; Supplementary Figure 2 dose-response value, starvation-induced non-replicating H37Rv cells ([9]; Conc. 0.0976562 µM): 90.7405 and 81.0762 and 83.793; Supplementary Figure 2 dose-response value, starvation-induced non-replicating H37Rv cells ([9]; Conc. 0.195312 µM): 92.9713 and 85.6175 and 87.7368; Supplementary Figure 2 dose-response value, starvation-induced non-replicating H37Rv cells ([9]; Conc. 0.390625 µM): 86.478 and 81.4188 and 83.0521; Supplementary Figure 2 dose-response value, starvation-induced non-replicating H37Rv cells ([9]; Conc. 0.78125 µM): 85.259 and 79.8652 and 81.4825; Supplementary Figure 2 dose-response value, starvation-induced non-replicating H37Rv cells ([9]; Conc. 1.5625 µM): 86.0796 and 80.7177 and 79.658; Supplementary Figure 2 dose-response value, starvation-induced non-replicating H37Rv cells ([9]; Conc. 3.125 µM): 84.8208 and 76.8536 and 80.407; Supplementary Figure 2 dose-response value, starvation-induced non-replicating H37Rv cells ([9]; Conc. 6.25 µM): 82.0881 and 78.7498 and 78.7099; Supplementary Figure 2 dose-response value, starvation-induced non-replicating H37Rv cells ([9]; Conc. 25 µM): 68.1135 and 65.0382 and 65.6038; Supplementary Figure 2 dose-response value, starvation-induced non-replicating H37Rv cells ([9]; Conc. 50 µM): 63.9387 and 63.1101 and 60.943; Supplementary Figure 2 dose-response value, starvation-induced non-replicating H37Rv cells ([9]; Conc. 100 µM): 61.9787 and 54.8959 and 58.7122; Microsomal Stability Rat QH ([10]; Rat): >87.900%; Microsomal Stability Rat ([10]; clearance in microsomes): > 88 %Qh
